# Legend:
# [1] = target: T1, human β-Secretase (AA 1-AA 460), sBACE-Fc (Homo sapiens, UniProt P56817); experiment: Diluted TR-FRET assay; type: biochemical; settings: footnote a: diluted FRET assay, 50 times less enzyme, 6.5 h reaction time at r.t.; read-out: IC50 in TR-FRET assay (IC50 from the diluted FRET assay)
# T1 construct: soluble part of the human β-Secretase (AA 1-AA 460) was cloned; Fc domain of IgG1; made in house
# Description: (§1) The cDNA for the soluble part of the human β-Secretase (AA 1-AA 460) was cloned using the ASP2-Fc10-1-IRES-GFP-neoK mammalian expression vector. The gene was fused to the Fc domain of IgG1 (affinity tag) and stably cloned into HEK 293 cells.
# The robotic systems Biomek FX and Velocity 11 were used for all liquid handling and the enzyme and substrate solutions were kept on ice until they were placed in the robotic system. Enzyme (9 μA) was added to the plate then 1 μA of compound in dimethylsulphoxide was added, mixed and pre-incubated for 10 minutes. Substrate (10 μA) was then added, mixed and the reaction proceeded for 15 minutes at r.t. The reaction was stopped with the addition of Stop solution (7 μl, NaAcetate, pH 9). […] The dimethylsulphoxide control, instead of test compound, defined the 100% activity level and 0% activity was defined by wells lacking enzyme (replaced with reaction buffer).
# [2] = tested on: sAPPβ release, SH-SY5Y cells; experiment: sAPPβ release assay; type: cell-based; settings: Homo sapiens, compounds incubated 17 h
# Description: SH-SY5Y cells were cultured in DMEM/F-12 with Glutamax, 10% FCS and 1% non-essential amino acids and cryopreserved and stored at −140° C. at a concentration of 7.5−9.5×10^6 cells per vial. Thaw cells and seed at a conc. of around 10000 cells/well in DMEM/F-12 with Glutamax, 10% FCS and 1% non-essential amino acids to a 384-well tissue culture treated plate, […] cell susp/well. The cell plates were then incubated for 7-24 h at 37° C., 5% CO2. The cell medium was removed, followed by addition of 30 μL compound diluted in DMEM/F-12 with Glutamax, 10% FCS, 1% non-essential amino acids and 1% PeSt to a final conc. of 1% DMSO. The compounds were incubated with the cells for 17 h (overnight) at 37° C., 5% CO2. Meso Scale Discovery (MSD) plates were used for the detection of sAPPβ release. MSD sAPPβ plates were blocked in 1% BSA in Tris wash buffer (40 μL/well) for 1 h on shake at r.t. and washed 1 time in Tris wash buffer (40 μL/well). 20 μL of medium was transferred to the pre-blocked and washed is MSD sAPPβ microplates, and the cell plates were further used in an ATP assay to measure cytotoxicity. The MSD plates were incubated with shaking at r.t. for 2 h and the media discarded. 10 μL detection antibody was added (1 nM) per well followed by incubation with shaking at r.t. for 2 h and then discarded. 40 μL Read Buffer was added per well and the plates were read in a SECTOR Imager.
# [3] = target: T1, human β-Secretase (AA 1-AA 460), sBACE-Fc; experiment: TR-FRET assay; type: biochemical; settings: enzyme 2.7 μg/ml, substrate 100 nM, pH4.5, 15 minutes at r.t.
# Description: The β-secretase enzyme used in the TR-FRET is prepared as follows:
# as §1
# The enzyme (truncated form) was diluted to 6 μg/mL (stock 1.3 mg/mL) and the substrate (Europium)[…](Qsy7) to 200 nM (stock 120 μM) in reaction buffer (NaAcetate, is chaps, triton x-100, EDTA pH4.5). The robotic systems Biomek FX and Velocity 11 were used for all liquid handling and the enzyme and substrate solutions were kept on ice until they were placed in the robotic system. Enzyme (9 μA) was added to the plate then 1 μA of compound in dimethylsulphoxide was added, mixed and pre-incubated for 10 minutes. Substrate (10 μA) was then added, mixed and the reaction proceeded for 15 minutes at r.t. The reaction was stopped with the addition of Stop solution (7 μl, NaAcetate, pH 9). The fluorescence of the product was measured on a Victor II plate reader with an excitation wavelength of 340 nm and an emission wavelength of 615 nm. The assay was performed in a Costar 384 well round bottom, low volume, non-binding surface plate (Corning #3676). […] The dimethylsulphoxide control, instead of test compound, defined the 100% activity level and 0% activity was defined by wells lacking enzyme (replaced with reaction buffer).
# T1 sequence (P56817 22-460): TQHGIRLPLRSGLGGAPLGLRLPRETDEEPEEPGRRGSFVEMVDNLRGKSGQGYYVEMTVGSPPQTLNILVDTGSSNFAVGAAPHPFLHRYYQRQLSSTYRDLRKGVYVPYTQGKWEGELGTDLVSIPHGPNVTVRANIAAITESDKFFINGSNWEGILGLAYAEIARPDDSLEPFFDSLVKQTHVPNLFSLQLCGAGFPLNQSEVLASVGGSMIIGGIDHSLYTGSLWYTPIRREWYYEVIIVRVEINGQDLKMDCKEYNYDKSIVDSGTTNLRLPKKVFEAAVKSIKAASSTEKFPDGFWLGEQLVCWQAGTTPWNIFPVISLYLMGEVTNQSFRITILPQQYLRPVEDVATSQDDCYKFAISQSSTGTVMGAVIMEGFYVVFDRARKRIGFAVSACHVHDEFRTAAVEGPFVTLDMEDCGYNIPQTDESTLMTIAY
SMILES,IC50 [1] [nM],IC50 [2] [nM],IC50 [3] [nM]
"CC#Cc1cncc(-c2cc(C3(c4cc(C)c(=O)n(CC)c4)N=C(N)c4c(F)cccc43)ccn2)c1 (single isomer, unassigned) [Example 26, 5-(3-amino-4-fluoro-1-(5′-(prop-1-ynyl)-2,3′-bipyridin-4-yl)-1H-isoindol-1-yl)-1-ethyl-3-methylpyridin-2(1H)-one]",4,0.7,–
"CC#Cc1cncc(-c2cc(C3(c4cc(C)c(=O)n(CC)c4)N=C(N)c4c(F)cccc43)ccn2)c1 (single isomer, unassigned) [Example 26a, 5-(3-amino-4-fluoro-1-(5′-(prop-1-ynyl)-2,3′-bipyridin-4-yl)-1H-isoindol-1-yl)-1-ethyl-3-methylpyridin-2(1H)-one]",–,–,8350
"CC#Cc1cncc(-c2cccc([C@@]3(c4cc(C)c(=O)n(C)c4)N=C(N)c4c(F)cccc43)c2)c1 [Example 1, (R)-5-(3-Amino-4-fluoro-1-(3-(5-(prop-1-ynyl)pyridin-3-yl)phenyl)-1H-isoindol-1-yl)-1,3-dimethylpyridin-2(1H)-one]",6,2,–
"CC#Cc1cncc(-c2cc(C3(c4cc(C)c(=O)n(CC)c4)N=C(N)c4c(F)cccc43)ccn2)c1 (centres unmarked) [Example 2, 5-(3-Amino-4-fluoro-1-(5′-(prop-1-ynyl)-2,3′-bipyridin-4-yl)-1H-isoindol-1-yl)-1-ethyl-3-methylpyridin-2(1H)-one]",–,2,57
"CCn1cc([C@]2(c3cccc(-c4cncc(C)c4F)c3)N=C(N)c3c(F)cccc32)cc(C)c1=O [Example 4, (R)-5-(3-Amino-4-fluoro-1-(3-(4-fluoro-5-methylpyridin-3-yl)phenyl)-1H-isoindol-1-yl)-1-ethyl-3-methylpyridin-2(1H)-one]",–,55,51
"Cc1cc(C2(c3cccc(-c4cncc(C#N)c4)c3)N=C(N)c3c(F)cccc32)cn(C(C)C)c1=O (centres unmarked) [Example 5, 5-(3-(3-Amino-4-fluoro-1-(1-isopropyl-5-methyl-6-oxo-1,6-dihydropyridin-3-yl)-1H-isoindol-1-yl)phenyl)nicotinonitrile]",–,10,58
"CCn1cc(C2(c3cccc(-c4cncnc4)c3)N=C(N)c3c(F)cccc32)cc(C)c1=O (centres unmarked) [Example 6, 5-(3-Amino-4-fluoro-1-(3-(pyrimidin-5-yl)phenyl)-1H-isoindol-1-yl)-1-ethyl-3-methylpyridin-2(1H)-one]",16,9,–
"Cc1cc(C2(c3cccc(-c4cncc(F)c4)c3)N=C(N)c3c(F)cccc32)cn(C(C)C)c1=O (centres unmarked) [Example 7, 5-(3-Amino-4-fluoro-1-(3-(5-fluoropyridin-3-yl)phenyl)-1H-isoindol-1-yl)-1-isopropyl-3-methylpyridin-2(1H)-one]",–,4,38
"Cn1cc(C2(c3cccc(-c4cncc(C#N)c4)c3)N=C(N)c3c(F)cccc32)cc(C(F)(F)F)c1=O (centres unmarked) [Example 10, 5-(3-(3-Amino-4-fluoro-1-(1-methyl-6-oxo-5-(trifluoromethyl)-1,6-dihydropyridin-3-yl)-1H-isoindol-1-yl)phenyl)nicotinonitrile]",–,20,89
"COc1cncc(-c2cccc(C3(c4cc(C(F)(F)F)c(=O)n(C)c4)N=C(N)c4c(F)cccc43)c2)c1 (centres unmarked) [Example 11, 5-(3-Amino-4-fluoro-1-(3-(5-methoxypyridin-3-yl)phenyl)-1H-isoindol-1-yl)-1-methyl-3-(trifluoromethyl)pyridin-2(1H)-one]",–,46,54
"Cn1cc(C2(c3cccc(-c4cncc(F)c4)c3)N=C(N)c3c(F)cccc32)cc(C(F)(F)F)c1=O (centres unmarked) [Example 12, 5-(3-Amino-4-fluoro-1-(3-(5-fluoropyridin-3-yl)phenyl)-1H-isoindol-1-yl)-1-methyl-3-(trifluoromethyl)pyridin-2(1H)-one]",–,8,62
"Cn1cc(C2(c3cccc(-c4cncnc4)c3)N=C(N)c3c(F)cccc32)cc(C(F)(F)F)c1=O (centres unmarked) [Example 13, 5-(3-Amino-4-fluoro-1-(3-(pyrimidin-5-yl)phenyl)-1H-isoindol-1-yl)-1-methyl-3-(trifluoromethyl)pyridin-2(1H)-one]",–,24,81
"Cc1cc(C2(c3cccc(-c4cncnc4)c3)N=C(N)c3c(F)cccc32)cn(C)c1=O (centres unmarked) [Example 14, 5-(3-Amino-4-fluoro-1-(3-(pyrimidin-5-yl)phenyl)-1H-isoindol-1-yl)-1,3-dimethylpyridin-2(1H)-one]",–,11,58
"Cc1cc(C2(c3ccnc(-c4cncc(Cl)c4)c3)N=C(N)c3c(F)cccc32)cn(C)c1=O (centres unmarked) [Example 15, 5-(3-Amino-1-(5′-chloro-2,3′-bipyridin-4-yl)-4-fluoro-1H-isoindol-1-yl)-1,3-dimethylpyridin-2(1H)-one]",–,14,104
"CC#Cc1cncc(-c2cc(C3(c4cc(CC)c(=O)n(CC)c4)N=C(N)c4c(F)cccc43)ccn2)c1 (centres unmarked) [Example 16, 5-(3-Amino-4-fluoro-1-(5′-(prop-1-ynyl)-2,3′-bipyridin-4-yl)-1H-isoindol-1-yl)-1,3-diethylpyridin-2(1H)-one]",–,1,59
"Cc1cc(C2(c3cccc(-c4cncc(C#N)c4)c3)N=C(N)c3c(F)cccc32)cn(C)c1=O (centres unmarked) [Example 17, 5-(3-(3-Amino-1-(1,5-dimethyl-6-oxo-1,6-dihydropyridin-3-yl)-4-fluoro-1H-isoindol-1-yl)phenyl)nicotinonitrile]",–,17,66
"Cc1cc(C2(c3cccc(-c4cncc(Cl)c4)c3)N=C(N)c3c(F)cccc32)cn(C)c1=O (centres unmarked) [Example 18, 5-(3-Amino-1-(3-(5-chloropyridin-3-yl)phenyl)-4-fluoro-1H-isoindol-1-yl)-1,3-dimethylpyridin-2(1H)-one]",–,8,26
"Cc1cc(C2(c3cccc(-c4cncc(F)c4)c3)N=C(N)c3c(F)cccc32)cn(C)c1=O (centres unmarked) [Example 19, 5-(3-Amino-4-fluoro-1-(3-(5-fluoropyridin-3-yl)phenyl)-1H-isoindol-1-yl)-1,3-dimethylpyridin-2(1H)-one]",–,3,61
"COc1cncc(-c2cccc(C3(c4cc(C)c(=O)n(C)c4)N=C(N)c4c(F)cccc43)c2)c1 (centres unmarked) [Example 20, 5-(3-amino-4-fluoro-1-(3-(5-methoxypyridin-3-yl)phenyl)-1H-isoindol-1-yl)-1,3-dimethylpyridin-2(1H)-one]",–,6,31
"CCn1cc(C2(c3cccc(-c4cncc(F)c4)c3)N=C(N)c3c(F)cccc32)cc(C(F)F)c1=O (centres unmarked) [Example 22, 5-(3-Amino-4-fluoro-1-(3-(5-fluoropyridin-3-yl)phenyl)-1H-isoindol-1-yl)-3-(difluoromethyl)-1-ethylpyridin-2(1H)-one]",–,9,70
"CC#Cc1cccc(-c2cccc([C@@]3(c4cc(C)c(=O)n(CC)c4)N=C(N)c4c(F)cccc43)c2)n1 [Example 24, (R)-5-(3-Amino-4-fluoro-1-(3-(6-(prop-1-ynyl)pyridin-2-yl)phenyl)-1H-isoindol-1-yl)-1-ethyl-3-methylpyridin-2(1H)-one]",–,22,140
